Assay results from ChEMBL document CHEMBL1133104, “Polyether mimics of naturally occurring cytotoxic annonaceous acetogenins” (2000).

Legend:
Type in all cases: functional, Homo sapiens
[1] = system: K562; experiment: Compound at 1 uM was tested in vitro to inhibit proliferation of K562 leukemia cell line
[2] = system: HL-60; experiment: Compound at 10 uM was tested in vitro to inhibit proliferation of HL-60 leukemia cell line
[3] = system: HL-60; experiment: Compound at 100 uM was tested in vitro to inhibit proliferation of HL-60 leukemia cell line
[4] = system: HL-60; experiment: Compound at 1 uM was tested in vitro to inhibit proliferation of HL-60 leukemia cell line
[5] = system: K562; experiment: Compound at 10 uM was tested in vitro to inhibit proliferation of K562 leukemia cell line
[6] = system: K562; experiment: Compound at 100 uM was tested in vitro to inhibit proliferation of K562 leukemia cell line

SMILES	IG [1] [%]	IG [2] [%]	IG [3] [%]	IG [4] [%]	IG [5] [%]	IG [6] [%]
CCCCCCCCCCCC[C@@H](O)[C@H]1CCC([C@H](O)CCCCC(O)CCCCCCCC2=C[C@H](C)OC2=O)O1 (mixture of isomers)	0	56	63	5	2	10
CCCCCCCCCCCC[C@@H](O)[C@H]1CCC([C@H](O)CCCCC(=O)CCCCCCCC2=C[C@H](C)OC2=O)O1 (stereo partly specified)	2	29	68	0	16	53
CCCCCCCCCCOCCOCCOCCOCCCCC(O)CCCCCCCC1=C[C@H](C)OC1=O (stereo partly specified)	22	65	100	21	25	55
CCCCCCCCCC[C@@H](O)[C@@H]1CC[C@@H]([C@@H]2CC[C@@H]([C@H](O)CCCCCCCCCC(O)CC3=CC(C)OC3=O)O2)O1 (stereo partly specified) [BULLATACIN]	27	7	73	0	39	53
CCCCCCCCCCCOCCOCCOCCCCC(O)CCCCCCCC1=C[C@H](C)OC1=O (stereo partly specified)	0	50	100	0	18	31
CCCCCCCCCCCC[C@@H](O)[C@H]1CC[C@H]([C@H](O)CCCCCCCCCCCCC2=C[C@H](C)OC2=O)O1 [REL-SOLAMIN]	29	8	24	0	39	59
